Results taken from US20110034426A1, “Method of Preventing Renal Disease and Treating Symptoms Thereof” (WISCONSIN ALUMNI RESEARCH FOUNDATION, priority 2009, published 2011).
Entries after “also recorded” stand apart in the source; their conditions may differ.

Legend:
[1] = Serum calcium in treated MRL/lpr mice
Protocol: Mice. All mice used in this study were female MRL/MpJ-Fas^lpr/J mice either purchased directly or originally purchased from The Jackson Laboratory and bred in house. All mice involved in each study were age matched to the week of birth. All animal handling was performed according to protocol A1205 approved by the University of Wisconsin—Madison Institutional Animal Care and Use Committee. From weaning, female mice were placed on purified diet containing 0.47% calcium without 2MD until treatment initiation. The purified powder diet was prepared in agar form and administered 3 times a week. 2MD was administered through diet based on 5 g daily diet consumption per mouse. Water was given ad libitum. Blood was taken via retro-orbital bleeding method under isoflurane anesthetic. Serum was isolated from blood samples, frozen and subsequently analyzed with a benchtop clinical chemistry analyzer (Pentra 400, Horiba ABX).

[2] = tested on: NOD mice; experiment: NOD Mouse Model of Type I Diabetic Nephropathy; format: in vivo; settings: 2MD in the diet
Protocol: (§1) Proteinuria measurements. Proteinuria measurements were performed by putting gentle pressure on the bladder for spot urine analysis on a clean surface with a semi-quantitative dipstick (Combistix, Bayer). Mice were determined to have proteinuria when urinary protein output was 100 mg/dL or more. Urine was collected by placing the animals in metabolic cages and performing two-24 hr collections. Total protein was measured using a Bradford assay. (MM Bradford, Analytical Biochemistry 72: 248-254, 1976).
Disease Induction. NOD mice (breeder pairs) were obtained from JAX laboratories (Bar Harbor, Me.). Weanling mice were placed on chow diet (5K52 Lab Diets) or purified diet (Suda et al., Purified Rodent Diet-Diet 11) and allowed to spontaneously develop diabetes (two consecutive measurements of plasma glucose >[…]). Water and diet were provided ad libitum.
Animal Husbandry. Animals were housed in autoclaved, plastic shoe-box style cages with corn cob bedding in groups of 2-4 animals/cage. Once mice were confirmed diabetic, the cages were changed daily. The animal rooms were maintained at a temperature of 68 to 72° F. and a relative humidity of 25 to 75%. […]
Treatment Groups. […] Once animals were determined to be diabetic, animals were assigned to treatment groups (6-12/group) so that each group would have the same average plasma glucose level at enrollment. […]

[3] = tested on: MRL/MpJ-Fas^lpr/J mice; experiment: Proteinuria in MRL/lpr mouse model of systemic lupus erythematosus / lupus nephritis; format: in vivo
Protocol: (§2) Mice. […] Water was given ad libitum.
as §1

[4] = tested on: ⅚ths Nephrectomy Rat Model; experiment: ⅚ths Nephrectomy Rat Model (uremic rat); format: in vivo, Sprague-Dawley rats; settings: uremic rats
Description: ⅚ths Nephrectomy Rat Model. Disease Induction. Weanling, male Sprague-Dawley rats were obtained from Harlan (Madison, Wis.). Following a 10-13 day acclimation period, the animals had two-thirds of one kidney removed. After a week, the other entire kidney was removed. The animals were then switched from a chow diet to a purified rodent diet (Suda et al., Purified Rodent Diet-Diet 11) containing 0.6% Ca and 0.9% phosphorus and fat soluble vitamins A, D, E and K. Water and diet were provided ad libitum.
Animal Husbandry. Animals were housed in suspended, plastic shoe-box style cages with corn cob bedding (prior to surgery) or in stainless steel, wire-bottom cages (approximately one week after surgery). The animal rooms were maintained at a temperature of 68 to 72° F. and a relative humidity of 25 to 75%. The holding rooms were set to provide 12 hours of light per day.
Treatment Groups. Approximately four weeks after the second surgery, animals were assigned to treatment groups (14-15 animals/group) so that each group had the same average PTH level.
Dose Preparation (Vehicle Formulation). The negative control material was prepared by volumetrically measuring ethanol (5%) and Neobee oil, mixing and then placing in storage at 2 to 8° C.
Dose Preparation (2MD Formulation). 2MD formulations (DP001, Sigma Aldrich Fine Chemicals, Madison, Wis.) were prepared by first determining the concentration of an ethanol stock solution using UV spectrophotometry (extinction coefficient=42,000; max=252 nm). The solutions were then volumetrically added to Neobee oil so that there was no more than 5% ethanol in the final solution. If necessary, additional ethanol was added to bring the final ethanol amount to 5%. The solution was mixed and stored at 2 to 8° C.
Dose Administration Method. Both vehicle and 2MD were administered orally to the back of the tongue at 0.5 ml/kg body weight once daily for 8 weeks.
Serum Parathyroid Hormone (PTH) Levels. By “serum PTH levels” we mean the amount of PTH released by the parathyroid gland. PTH is the most important regulator of the body's calcium and phosphorus levels, and is controlled by the level of calcium in the blood. Low blood calcium levels cause increased PTH to be released, while high blood calcium levels inhibit PTH release. Normal values are 10-55 picograms per milliliter (pg/mL). Four weeks after surgery and 4 and 8 weeks after treatment initiation, blood was collected from the tail artery and the concentration of bioactive serum PTH was measured using the rat BioActive Intact PTH ELISA Kit from Immutopics, Inc. (San Clemente, Calif.).
Serum Calcium Analysis. Four weeks following surgery and 4 and 8 weeks after treatment started, blood was collected from the tail artery of each experimental animal. The blood was allowed to coagulate at room temperature and then centrifuged at 3000×g for 15 minutes. The serum was transferred to a polypropylene tube and stored frozen at −20° C. The level of calcium was determined by diluting the serum into 0.1% lanthum chloride and measuring the absorbance on an atomic absorption spectrophotometer (Perkin Elmer Model 3110, Shelton, Conn.).
Phosphorus Assay. Four weeks after surgery and 8 weeks after treatment started, blood was collected from the tail artery of each experimental animal. The blood was allowed to coagulate at room temperature and then centrifuged at 3000×g for 15 minutes. The serum was transferred to a polypropylene tube and stored frozen at −20° C. The level of phosphorus was determined using a clinical analyzer (Pentra 400, Horiba ABX Diagnostics—France; UV method using phosphomolybdate).
Creatinine Assay. Measuring serum creatinine levels is a useful and inexpensive method of evaluating renal dysfunction. Creatinine is a non-protein waste product of […] metabolism by skeletal muscle tissue. Creatinine production is continuous and is proportional to muscle mass. […]

[5] = tested on: MRL/MpJ-Fas^lpr/J mice; experiment: Splenomegaly (spleen mass and histology) in MRL/lpr mice; format: in vivo
Description: as §2

[6] = Growth, body weight and clinical signs in treated MRL/lpr mice; format: in vivo
Description: as §2

[7] = tested on: MRL/MpJ-Fas^lpr/J mice; experiment: Kidney and heart histology in MRL/lpr mice; format: in vivo
Protocol: as §2
Histology. Half of a kidney was preserved in cold zinc formalin fixative, embedded in paraffin, and sectioned 4 μm thick. Hematoxylin and eosin (H&E) and Masson-Goldner's trichrome were used to study histological differences between kidney samples. Von Kossa staining was performed on whole heart sections (processed as described above) to determine heart calcification. Sectioning and staining was performed by the University of Wisconsin—Madison McArdle Histology Laboratory. Micrographs in the figures were taken by an Olympus BH-2 microscope and Nikon Coolpix 990 digital camera.

[8] = tested on: MRL/MpJ-Fas^lpr/J mice; settings: 300 ng per day 1,25(OH)2D3 in diet, earlier thesis work (Kim 2009); cited from earlier work
[9] = daily oral 2MD for 8 weeks vs vehicle
[10] = daily oral 2MD vs vehicle, six weeks after treatment initiation

SMILES: C=C1[C@H](O)CC(=C/C=C2\CCC[C@@]3(C)C2CCC3[C@@H](C)CCCC(C)(C)O)C[C@H]1O (stereo partly drawn) [2MD, 2-methylene-19-nor-(20S)-1α,25-(OH)2D3]
- serum calcium levels ([1]; 1 ng 2MD, MRL/lpr mice, throughout the study): within the physiologically normal range
- serum calcium levels ([1]; 5 ng 2MD per mouse per day, MRL/lpr mice): without dramatically increasing
- serum calcium, highest measured point ([1]; 5 ng 2MD, MRL/lpr mice): 12.4 mg/dL
- serum calcium at study termination ([1]; 5 ng 2MD, MRL/lpr mice, week 19): 10.9 mg/dL
- serum calcium levels ([1]; 2MD treatment (0.5, 1, 5 ng), week 10 to 19, MRL/lpr mice): mildly elevated
- overall urine volume output [2]: reduced; also recorded: marked improvement
- total urinary protein excretion [2]: reduced; also recorded: marked improvement
- reduction in proteinuria incidence ([3]; 1 ng 2MD per mouse per day in diet, MRL/lpr mice): > 60%
- mean time of onset of proteinuria ([3]; 1 ng 2MD, MRL/lpr mice): delayed mean time of onset of proteinuria
- proteinuria (terminal incidence) ([3]; 5 ng 2MD/mouse/day in diet, MRL/lpr mice, treatment week 10 to 19): completely preventing proteinuria; also recorded: completely prevented; also recorded: sufficient to prevent proteinuria
- all markers of kidney failure ([4]; 2MD treatment): improved
- serum creatinine [4, 9]: lower levels
- serum phosphorus [4, 9]: lower levels
- urinary protein excretion [4, 10]: lower levels
- urinary volume [4, 10]: lower levels
- bone mineral density (total body BMD) ([4]; daily oral 2MD): improved bone mineral densities; also recorded: increased bone mineral density
- overall survival ([4]; daily oral 2MD): increased overall survival
- serum PTH levels ([4]; daily oral 2MD): decreased PTH levels; also recorded: lower PTH levels
- total serum calcium ([4]; dose levels of 2MD giving the positive effects): do not significantly raise serum calcium
- spleen histology (white pulp structure) ([5]; 5 ng 2MD): helps retain the sheath-like structure; also recorded: retains some of the sheath structure
- splenomegaly / spleen weight (also normalized to body weight) ([5]; 5 ng 2MD vs 0 ng control, p<0.05): significantly reduced splenomegaly; also recorded: significantly decreased
- hypercalcemia and associated effects including weight loss, compared with 150 ng 1,25(OH)2D3 ([6]; 1 ng 2MD): significantly less
- clinical symptoms of hypercalcemia ([6]; 5 ng 2MD): symptoms of hypercalcemia including unkempt fur and nervousness
- growth / weight loss ([6]; 5 ng 2MD): adversely affected; also recorded: Weight loss is most severe
- growth ([6]; 0.5 and 1 ng 2MD): slight impact on growth; also recorded: very mild
- lethargy or morbidity ([6]; any 2MD dose group (0.5, 1, 5 ng)): no lethargy or morbidity was observed
- perivascular infiltration ([7]; 5 ng 2MD vs control): slight decrease; also recorded: noticeably decreased
- tubulointerstitial infiltration of leukocytes ([7]; 5 ng 2MD vs control): noticeable decrease; also recorded: substantially less
- glomerular damage (sclerosis, fibrosis, basement membrane thickening, mesangial proliferation) ([7]; 5 ng 2MD vs control, kidney histology): prevented
- interstitial fibrosis (fibrotic staining) ([7]; 5 ng 2MD vs control, trichrome stain): significantly less; also recorded: the extent and frequency was much less
- calcification in kidneys and hearts ([7]; 2MD treated MRL/lpr mice): lack of evidence of calcification; also recorded: absence of calcification artifacts

SMILES: C=C1/C(=C\C=C2/CCC[C@]3(C)[C@@H]([C@H](C)CCCC(C)(C)O)CC[C@@H]23)C[C@@H](O)C[C@@H]1O [1,25(OH)2D3, 1α,25-dihydroxyvitamin D3, reference compound]
- prevention of proteinuria ([3]; 300 ng 1,25(OH)2D3 compared with 5 ng 2MD): equally effective
- spleen mass reduction ([5]; 150 ng per day 1,25(OH)2D3): comparable to that achieved with 5 ng 2MD treatment
- spleen histology, compared with 5 ng 2MD ([5]; 300 ng 1,25(OH)2D3): better retention of normal spleen histology
- spleen mass normalized to body weight ([5]; 300 ng 1,25(OH)2D3): statistically significant reduction
- spleen mass, compared with 5 ng 2MD ([5]; 300 ng 1,25(OH)2D3): greater reduction in spleen mass
- proteinuria [8]: completely prevents proteinuria
